Test results taken from patent publication US10159635B2, “Cosmetic and pharmaceutical uses of saccharides” (CURAPEL (SCOTLAND) LIMITED, priority 2012, dated 2018).

Key:
[1] = test system: melanin in ex-vivo human skin; assay: Masson Fontana melanin staining of ex-vivo human skin in organ culture; format: cell-based
Method: Samples of full thickness ex-vivo human skin were obtained from elective plastic surgery procedures. […] Two concentrations of the NDO melibiose, 1.5 and 3.0% (w/v) were tested for their ability to reduce skin pigmentation by addition to the medium surrounding the cultured skin samples at day 1 and every time the medium was changed thereafter. As a control some skin samples were cultured under identical conditions apart from the […] of melibiose.
At day 6, the skin samples were immersed in cryo-embedding medium and 5 μm sections cut and stained using the Masson Fontana assay. The principle of the Masson Fontana assay is that melanin granules reduce silver from ammoniacal silver nitrate solution to a visible metallic state. Information on the protocol for the Masson-Fontana Assay may be found in relevant laboratory handbooks, for example Lille RD, 1965, Histopathologic Technique and Practical Histochemistry, 3rd Ed 1965, the Blakiston Division, McGraw Hill Book Company, p 240, which is incorporated herein by reference.
Following the fixation of cryosections of skin with ethanol/acetic acid, slides were heated in 0.5% ammoniacal silver nitrate solution using a microwave. Sections were then toned in 1% gold chloride, fixed in 5% sodium thiosulphate and counterstained with haematoxylin before mounting using DPEX. Melanin stain can then be visualised using light microscopy.
Samples of full thickness ex-vivo human skin were obtained as described in Example 1 and were maintained in organ culture for 6 days. Two concentrations of the NDO melibiose, 25 mM and 50 mM, and two concentration of the NDO P95 (a 95% mixture of oligofructose, also known as fructooligosaccharides (FOS)), 25 mM and 50 mM, were tested for their ability to reduce skin pigmentation by addition to the medium surrounding the cultured skin samples at day 1 and every time the medium was changed thereafter. As a control some skin samples were cultured under identical conditions apart from the absence of NDO. […]

[2] = test system: interleukin-8 (IL-8) production by HaCaT keratinocytes; assay: IL-8 ELISA on culture supernatant of keratinocytes; format: cell-based
Method: Following an overnight coating of a flat-bottomed 96 well plate with an anti-IL-8 antibody, a 9-point IL-8 standard curve was generated using serial dilutions from a 2000 pg/ml IL-8 stock solution. These were cultured on the 96 well plate for 2 h along side culture supernatants derived from keratinocytes exposed to sugars. The plate was then washed and incubated for 2 h with an anti-IL-8 biotin-antibody before the plate was again washed and left for 20 min with a solution of streptavidin-HRP. After a final wash the plate was coated with a solution of tetramethyl benzidine forming a blue reaction product, the intensity of which relates to amount of IL-8 present in the original culture supernatant. This reaction was stopped using sulphuric acid turning the solution yellow which was then read on a microplate reader at […]. Unknown sample concentrations of IL-8 were determined using the standard curve.

**Q.** Which results are given for `OC[C@H]1O[C@H](OCC2O[C@@H](O)[C@H](O)[C@@H](O)[C@@H]2O)[C@H](O)[C@@H](O)[C@H]1O` (some centres unmarked) [melibiose]?
**A.** reduction in melanin staining (mean density, image analysis) in treated skin vs control ([1]; Example 1, ex-vivo human skin, 6 days culture, 25 mM or 50 mM melibiose, FIG. 2b): approximately 10%; melanin in stained skin sections, treated vs untreated control ([1]; Example 1, full thickness ex-vivo human skin, 6 days organ culture, melibiose 1.5 and 3.0% (w/v) in medium, FIG. 2a): significant reduction in melanin; mean density of melanin staining, treated skin vs control ([1]; Example 2, ex-vivo human skin, 6 days organ culture, 25 mM or 50 mM NDO in medium, FIG. 3): reduction in melanin staining; constitutive (baseline) IL-8 secretion ([2]; HaCaT keratinocytes, unstimulated, FIG. 4a): mildly dose-responsive suppression; IL-8 secretion in response to IL-1β stimulation ([2]; keratinocytes stimulated with IL-1β, 5% melibiose, FIG. 4b): reduced to nearly control levels
